Laboratory results: patent US12325697B2 (Nimbus Clio, Inc., priority 2021, dated 2025)
pEC50, pIC50: −log10 of the molar value.

Columns and labels:
[1] = tested on: Jurkat (clone E6-1) cells, NFAT luciferase reporter; experiment: Jurkat Reporter Assay (NFAT Luciferase); format: cell-based; details: Homo sapiens, anti-CD3 stimulation, 6 hr, read-out: Jurkat NFAT EC50
[2] = tested on: Phospho-Zap70 (Y-319) in Jurkat wild-type (clone E6-1) cells; experiment: Jurkat pZAP70 HTRF Assay; format: cell-based; details: Homo sapiens, anti-CD3 5 μg/ml, 3 hr, read-out: ZAP70 Jurkat EC50
[3] = target: Recombinant human Cbl-b (aa 36-427) (Homo sapiens (Human), UniProt Q13191); experiment: Cbl-b Biochemical Assay (TR-FRET); details: read-out: TR-FRET hCbl-b IC50
How it was run: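 IC50 from 4-parameter fit of % inhibition (DMSO max, reference-inhibitor min), duplicate ten-point series. Compound preincubated with 6 nM Cbl-b, then Src-Zap70 (1-2.5 nM)/0.5 mM ATP reaction 60 min RT; EDTA quench with labelled UBE2D2-Ub and streptavidin-terbium, 60 min, HTRF at 520 nm.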

Chain of Recombinant human Cbl-b (aa 36-427) (Q13191 36-427): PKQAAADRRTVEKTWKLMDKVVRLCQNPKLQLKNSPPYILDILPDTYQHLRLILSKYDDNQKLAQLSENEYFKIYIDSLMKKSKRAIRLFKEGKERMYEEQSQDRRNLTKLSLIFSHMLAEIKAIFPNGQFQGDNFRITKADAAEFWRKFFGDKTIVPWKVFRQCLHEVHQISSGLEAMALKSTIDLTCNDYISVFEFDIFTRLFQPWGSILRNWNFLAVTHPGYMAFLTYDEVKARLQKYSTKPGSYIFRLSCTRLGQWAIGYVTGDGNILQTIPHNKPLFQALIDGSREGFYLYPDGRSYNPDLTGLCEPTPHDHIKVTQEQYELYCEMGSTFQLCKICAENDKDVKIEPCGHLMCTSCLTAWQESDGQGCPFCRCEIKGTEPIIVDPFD

Row | SMILES | pEC50 [1] | pEC50 [2] | pIC50 [3]
1 | COc1cc2c(cc1CNCC1(O)CCC1)C(=O)N(c1cc(-c3ccccc3-c3nncn3C)cc(C3CC3)n1)C2 [AEM-9, 2-(6-Cyclopropyl-4-(2-(4-methyl-4H-1,2,4-triazol-3-yl)phenyl)pyridin-2-yl)-6-((((1-hydroxycyclobutyl)methyl)amino)methyl)-5-methoxyisoindolin-1-one] | > 6.70 | > 6.70 | ≥ 6.70
2 | COCCNCc1cc2c(c(C(F)(F)F)c1)CN(c1cc(-c3ccc(C#N)cc3-c3nncn3C)cc(C3CC3)n1)C2=O [AEN-1, 4-[2-Cyclopropyl-6-(6-{[(2-methoxyethyl)amino]methyl}-1-oxo-4-(trifluoromethyl)-3H-isoindol-2-yl)pyridin-4-yl]-3-(4-methyl-1,2,4-triazol-3-yl)benzonitrile] | > 6.70 | > 6.70 | ≥ 6.70
3 | Cn1cnnc1-c1cc(C#N)ccc1-c1cc(C2CC2)nc(N2Cc3c(cc(CNCCO)cc3C(F)(F)F)C2=O)c1 [AEO-2, 4-[2-Cyclopropyl-6-(6-{[(2-hydroxyethyl)amino]methyl}-1-oxo-4-(trifluoromethyl)-3H-isoindol-2-yl)pyridin-4-yl]-3-(4-methyl-1,2,4-triazol-3-yl) benzonitrile] | > 6.70 | > 6.70 | ≥ 6.70
4 | CCNc1cc(-c2c(-c3nncn3C)cnn2C)cc(N2Cc3c(cc(CNCC4(OC)CCC4)cc3C(F)(F)F)C2=O)n1 [AEQ-3, 2-[6-(Ethylamino)-4-[2-methyl-4-(4-methyl-1,2,4-triazol-3-yl)pyrazol-3-yl]pyridin-2-yl]-6-({[(1-methoxycyclobutyl)methyl]amino}methyl)-4-(trifluoromethyl)-3H-isoindol-1-one] | > 6.70 | > 6.70 | ≥ 6.70
5 | Cn1cnnc1-c1cc(C#N)ccc1-c1cc(C2CC2)nc(N2Cc3c(cc(CO)cc3C(F)(F)F)C2=O)c1 [AES-1, 4-(2-Cyclopropyl-6-(6-(hydroxymethyl)-1-oxo-4-(trifluoromethyl)isoindolin-2-yl)pyridin-4-yl)-3-(4-methyl-4H-1,2,4-triazol-3-yl)benzonitrile] | > 6.70 | 6.00 to 6.70 | ≥ 6.70
6 | CCNc1cc(-c2ccc(C#N)cc2-c2nncn2C)cc(N2Cc3c(cc(CN[C@@H]4CCC[C@@H]4F)cc3C(F)(F)F)C2=O)n1 [AET-6, 4-[2-(Ethylamino)-6-[6-({[(1R,2S)-2-fluorocyclopentyl]amino}methyl)-1-oxo-4-(trifluoromethyl)-3H-isoindol-2-yl]pyridin-4-yl]-3-(4-methyl-1,2,4-triazol-3-yl) benzonitrile] | > 6.70 | > 6.70 | ≥ 6.70
7 | CCNc1cc(-c2ccc(C#N)cc2-c2nncn2C)cc(N2Cc3c(cc(OC)cc3C(F)(F)F)C2=O)n1 [AEU-8, 4-[2-(Ethylamino)-6-[6-methoxy-1-oxo-4-(trifluoromethyl)-3H-isoindol-2-yl]pyridin-4-yl]-3-(4-methyl-1,2,4-triazol-3-yl)benzonitrile] | > 6.70 | 6.00 to 6.70 | ≥ 6.70
8 | CCNc1cc(-c2ccc(C#N)cc2-c2nncn2C)cc(N2Cc3c(cc(COC4CC4)cc3C(F)(F)F)C2=O)n1 [AEV-3, 4-{2-[6-(Cyclopropoxymethyl)-1-oxo-4-(trifluoromethyl) -3H-isoindol-2-yl]-6-(ethylamino)pyridin-4-yl}-3-(4-methyl-1,2,4-triazol-3-yl) benzonitrile] | > 6.70 | 5.00 to 6.00 | ≥ 6.70
9 | CCOc1cc(-c2ccc(C#N)cc2-c2nncn2C)cc(N2Cc3c(cc(CO)cc3C(F)(F)F)C2=O)n1 [AEW-2, 4-{2-Ethoxy-6-[6-(hydroxymethyl)-1-oxo-4-(trifluoromethyl)-3H-isoindol-2-yl]pyridin-4-yl}-3-(4-methyl-1,2,4-triazol-3-yl)benzonitrile] | > 6.70 | 6.00 to 6.70 | ≥ 6.70
10 | Cn1cnnc1-c1cc(F)ccc1-c1cc(C2CC2)nc(N2Cc3c(cc(CNCC4(O)CCC4)cc3C(F)(F)F)C2=O)c1 [AEY-1, 2-{6-Cyclopropyl-4-[4-fluoro-2-(4-methyl-1,2,4-triazol-3-yl)phenyl]pyridin-2-yl}-6-({[(1-hydroxycyclobutyl)methyl]amino}methyl)-4-(trifluoromethyl)-3H-isoindol-1-one] | > 6.70 | > 6.70 | ≥ 6.70
11 | CCNc1cc(-c2ccc(C#N)cc2-c2nncn2C)cc(N2Cc3c(cc(COCC4(O)CCC4)cc3C(F)(F)F)C2=O)n1 [AEZ-1, 4-[2-(ethylamino)-6-(6-{[(1-hydroxycyclobutyl)methoxy]methyl}-1-oxo-4-(trifluoromethyl)-3H-isoindol-2-yl)pyridin-4-yl]-3-(4-methyl-1,2,4-triazol-3-yl) benzonitrile] | > 6.70 | 6.00 to 6.70 | ≥ 6.70
12 | CCNc1cc(-c2ccc(C#N)cc2-c2nncn2C)cc(N2Cc3c(cc(NC)cc3C(F)(F)F)C2=O)n1 [AFA-2, 4-[2-(ethylamino)-6-[6-(methylamino)-1-oxo-4-(trifluoromethyl)-3H-isoindol-2-yl]pyridin-4-yl]-3-(4-methyl-1,2,4-triazol-3-yl)benzonitrile] | > 6.70 | 6.00 to 6.70 | ≥ 6.70
13 | CCNc1cc(-c2ccc(C#N)cc2-c2nncn2C)cc(N2Cc3c(cc(COCC(C)(C)O)cc3C(F)(F)F)C2=O)n1 [AFE-1, 4-[2-(ethylamino)-6-{6-[(2-hydroxy-2-methylpropoxy)methyl]-1-oxo-4-(trifluoromethyl)-3H-isoindol-2-yl}pyridin-4-yl]-3-(4-methyl-1,2,4-triazol-3-yl)benzonitrile] | > 6.70 | 6.00 to 6.70 | ≥ 6.70
14 | CCNc1cc(-c2ccc(F)cc2-c2nncn2C)cc(N2Cc3c(cc(COCC4(O)CCC4)cc3C(F)(F)F)C2=O)n1 [AFF-2, 2-[6-(Ethylamino)-4-[4-fluoro-2-(4-methyl-1,2,4-triazol-3-yl)phenyl]pyridin-2-yl]-6-{1[(1-hydroxycyclobutyl)methoxy]methyl}-4-(trifluoromethyl)-3H-isoindol-1-one] | > 6.70 | > 6.70 | ≥ 6.70
15 | CCNc1cc(-c2ccc(F)cc2-c2nncn2C)cc(N2Cc3c(cc(COCC(C)(C)O)cc3C(F)(F)F)C2=O)n1 [AFG-1, 2-[6-(Ethylamino)-4-[4-fluoro-2-(4-methyl-1,2,4-triazol-3-yl)phenyl]pyridin-2-yl]-6-[(2-hydroxy-2-methylpropoxy)methyl]-4-(trifluoromethyl)-3H-isoindol-1-one] | > 6.70 | 6.00 to 6.70 | ≥ 6.70
16 | Cn1cnnc1-c1cc(F)ccc1-c1cc(C2CC2)nc(N2Cc3ccc(CNCC4(O)CCC4)cc3C2=O)c1 [AFH-1, 2-{6-Cyclopropyl-4-[4-fluoro-2-(4-methyl-1,2,4-triazol-3-yl)phenyl]pyridin-2-yl}-6-({[(1-hydroxycyclobutyl)methyl]amino}methyl)-3H-isoindol-1-one] | > 6.70 | > 6.70 | ≥ 6.70
17 | Cn1cnnc1-c1cnn(C)c1-c1cc(C2CC2)nc(N2Cc3ccc(CNCC4(O)CCC4)cc3C2=O)c1 [AFI-1, 2-{6-Cyclopropyl-4-[2-methyl-4-(4-methyl-1,2,4-triazol-3-yl)pyrazol-3-yl]pyridin-2-yl}-6-({[(1-hydroxycyclobutyl)methyl]amino}methyl)-3H-isoindol-1-one] | > 6.70 | > 6.70 | ≥ 6.70
18 | Cn1cnnc1-c1cc(C#N)ccc1-c1cc(C2CC2)nc(N2Cc3ccc(CNCC4(O)CCC4)cc3C2=O)c1 [AFJ-1, 4-{2-Cyclopropyl-6-[6-({[(1-hydroxycyclobutyl)methyl]amino}methyl)-1-oxo-3H-isoindol-2-yl]pyridin-4-yl}-3-(4-methyl-1,2,4-triazol-3-yl)benzonitrile] | > 6.70 | > 6.70 | ≥ 6.70
19 | Cn1cnnc1-c1cc(F)ccc1-c1cc(C2CC2)nc(N2Cc3c(cc(CO)cc3C(F)(F)F)C2=O)c1 [AFK-1, 2-{6-Cyclopropyl-4-[4-fluoro-2-(4-methyl-1,2,4-triazol-3-yl)phenyl]pyridin-2-yl}-6-(hydroxymethyl)-4-(trifluoromethyl)-3H-isoindol-1-one] | > 6.70 | > 6.70 | ≥ 6.70
20 | Cn1cnnc1-c1cc(F)ccc1-c1cc(C2CC2)nc(N2Cc3c(cc(COCC4(O)CCC4)cc3C(F)(F)F)C2=O)c1 [AFL-2, 2-{6-Cyclopropyl-4-[4-fluoro-2-(4-methyl-1,2,4-triazol-3-yl)phenyl]pyridin-2-yl}-6-{[(1-hydroxycyclobutyl)methoxy]methyl}-4-(trifluoromethyl)-3H-isoindol-1-one] | > 6.70 | > 6.70 | ≥ 6.70
21 | Cn1cnnc1-c1cc(F)ccc1-c1cccc(N2Cc3c(cc(CNCC4(O)CCC4)cc3C(F)(F)F)C2=O)c1 [AFN-3, 2-[4′-Fluoro-2′-(4-methyl-1,2,4-triazol-3-yl)-[1,1′-biphenyl]-3-yl]-6-({[(1-hydroxycyclobutyl)methyl]amino}methyl)-4-(trifluoromethyl)-3H-isoindol-1-one] | > 6.70 | > 6.70 | ≥ 6.70
22 | Cn1cnnc1-c1cc(F)ccc1-c1cc(C2CC2)nc(N2Cc3ccc(CN[C@@H]4CCC[C@@H]4O)cc3C2=O)c1 [AFO-2, 2-{6-Cyclopropyl-4-[4-fluoro-2-(4-methyl-1,2,4-triazol-3-yl)phenyl]pyridin-2-yl}-6-({[(1R,2S)-2-hydroxycyclopentyl]amino}methyl)-3H-isoindol-1-one] | > 6.70 | > 6.70 | ≥ 6.70
